US8318935B2, “Organic compounds 75074” (Novartis AG, priority 2007, dated 2012)
Counter-ions that a name gives are not always drawn.

Target: T1, epithelial sodium channel (ENaC) (Homo sapiens, UniProt P37088+P51168+P51170)
T1 construct: host or cells: primary Human Bronchial Epithelial cells (HBECs), air-liquid interface culture
T1 sequence (P37088 1-669): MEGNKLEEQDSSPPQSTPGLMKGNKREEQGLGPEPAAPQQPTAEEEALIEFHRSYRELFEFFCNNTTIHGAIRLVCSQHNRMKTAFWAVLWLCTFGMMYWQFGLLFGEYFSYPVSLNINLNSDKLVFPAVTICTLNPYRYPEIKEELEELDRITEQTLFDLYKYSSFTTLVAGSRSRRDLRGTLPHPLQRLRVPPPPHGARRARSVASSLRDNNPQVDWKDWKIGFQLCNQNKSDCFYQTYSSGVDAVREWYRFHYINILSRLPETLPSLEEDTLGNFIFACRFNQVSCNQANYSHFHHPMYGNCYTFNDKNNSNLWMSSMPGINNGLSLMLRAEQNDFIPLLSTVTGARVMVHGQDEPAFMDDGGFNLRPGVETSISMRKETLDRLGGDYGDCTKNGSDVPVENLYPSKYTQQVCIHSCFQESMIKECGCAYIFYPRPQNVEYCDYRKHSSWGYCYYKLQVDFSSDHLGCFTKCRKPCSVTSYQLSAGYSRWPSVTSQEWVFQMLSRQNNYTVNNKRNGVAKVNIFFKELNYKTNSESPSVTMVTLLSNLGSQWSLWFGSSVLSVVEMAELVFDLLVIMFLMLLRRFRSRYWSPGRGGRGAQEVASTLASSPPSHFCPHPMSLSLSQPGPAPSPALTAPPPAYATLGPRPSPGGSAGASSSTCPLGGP
T1 sequence (P51168 1-640): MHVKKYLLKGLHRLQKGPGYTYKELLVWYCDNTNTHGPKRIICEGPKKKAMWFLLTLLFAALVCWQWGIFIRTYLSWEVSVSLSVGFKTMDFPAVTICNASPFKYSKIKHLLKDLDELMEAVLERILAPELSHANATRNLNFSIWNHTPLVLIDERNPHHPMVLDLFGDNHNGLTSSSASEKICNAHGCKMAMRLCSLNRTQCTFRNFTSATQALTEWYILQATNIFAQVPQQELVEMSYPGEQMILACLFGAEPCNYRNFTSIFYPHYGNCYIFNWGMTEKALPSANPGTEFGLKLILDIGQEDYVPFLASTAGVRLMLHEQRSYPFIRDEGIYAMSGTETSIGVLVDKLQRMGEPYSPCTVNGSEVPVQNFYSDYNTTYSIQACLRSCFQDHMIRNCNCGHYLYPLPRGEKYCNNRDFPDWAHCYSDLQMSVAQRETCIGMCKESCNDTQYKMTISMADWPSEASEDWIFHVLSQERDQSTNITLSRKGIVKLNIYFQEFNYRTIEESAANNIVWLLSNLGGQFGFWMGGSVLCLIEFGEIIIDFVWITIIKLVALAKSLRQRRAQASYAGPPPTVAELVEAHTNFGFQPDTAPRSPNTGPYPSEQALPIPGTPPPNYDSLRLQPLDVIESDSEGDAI
T1 sequence (P51170 1-649): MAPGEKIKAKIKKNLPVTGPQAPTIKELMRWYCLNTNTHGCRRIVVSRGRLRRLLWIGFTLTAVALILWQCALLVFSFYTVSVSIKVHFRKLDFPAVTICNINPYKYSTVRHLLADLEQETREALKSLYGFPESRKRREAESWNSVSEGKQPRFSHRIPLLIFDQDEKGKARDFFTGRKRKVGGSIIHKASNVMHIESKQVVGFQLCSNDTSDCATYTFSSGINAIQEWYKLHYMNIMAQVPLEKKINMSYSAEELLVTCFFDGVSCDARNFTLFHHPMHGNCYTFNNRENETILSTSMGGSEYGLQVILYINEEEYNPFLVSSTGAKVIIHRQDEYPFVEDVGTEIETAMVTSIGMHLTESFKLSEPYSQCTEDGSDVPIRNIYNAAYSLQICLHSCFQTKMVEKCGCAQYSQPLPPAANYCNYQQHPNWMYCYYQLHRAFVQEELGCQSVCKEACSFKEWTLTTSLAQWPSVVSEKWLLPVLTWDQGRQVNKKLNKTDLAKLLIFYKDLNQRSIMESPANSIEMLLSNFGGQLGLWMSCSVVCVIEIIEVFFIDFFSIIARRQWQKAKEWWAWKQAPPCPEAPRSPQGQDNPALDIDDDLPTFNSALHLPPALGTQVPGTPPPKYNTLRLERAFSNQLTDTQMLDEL
Assay: Short circuit current (ISC) measurements in human bronchial epithelial cells: inhibition of the amiloride-sensitive ISC (ENaC blockade)
Assay type: cell-based
Conditions: Human Bronchial Epithelial cells (HBECs) at air-liquid interface, Ussing chamber, compound added to apical chamber
Experimental: Human Bronchial Epithelial cells (HBECs) (Cambrex) were cultured under air-liquid interface conditions to provide a well differentiated mucociliary phenotype.
HBECs were cultured using a modification of the method described by Gray and colleagues (Gray et al., 1996). Cells were seeded in plastic T-162 flasks and were grown in bronchial epithelial cell growth medium (BEGM; Cambrex) supplemented with bovine pituitary extract (52 μg/ml), hydrocortisone (0.5 μg/ml), human recombinant epidermal growth factor (0.5 ng/ml), epinephrine (0.5 μg/ml), transferrin (10 μg/ml), insulin (5 μg/ml), retinoic acid (0.1 μg/ml), triiodothyronine ([…]), gentamycin (50 μg/ml) and amphotericin B (50 ng/ml). Medium was changed every 48 hours until cells were 90% confluent. Cells were then passaged and seeded (8.25×10^4 cells/insert) on polycarbonate Snapwell inserts (Costar) in differentiation media containing 50% DMEM in BEGM with the same supplements as above but without triiodothyronine and a final retinoic acid concentration of 50 nM (all-trans retinoic acid). Cells were maintained submerged for the first 7 days in culture, after which time they were exposed to an apical air interface for the remainder of the culture period. At this time, media was changed to DMEM:F12 media containing 2% v/v Ultroser G for the remainder of culture. Amphotericin B was removed from all media 3 feeds prior to use in the Ussing Chambers. Cells were used between days 7 and 21 after establishment of the apical-air interface. At all stages of culture, cells were maintained at 37° C. in 5% CO2 in an air incubator.
Short Circuit Current (ISC) Measurements
Snapwell inserts were mounted in Vertical Diffusion Chambers (Costar) and were bathed with continuously gassed Ringer solution (5% CO2 in O2; pH 7.4) maintained at 37° C. containing (in mM): 120 NaCl, 25 NaHCO3, 3.3 KH2PO4, 0.8 K2HPO4, 1.2 CaCl2, 1.2 MgCl2, and 10 glucose. The solution osmolarity was between 280 and 300 mOsmol/kg H2O for all physiological salt solutions used. Cells were voltage clamped to 0 mV (model EVC4000; WPI). RT was measured by applying a 1- or 2-mV pulse at 30-s intervals and calculating RT by Ohm's law. Data were recorded using a PowerLab workstation (ADInstruments).
Test compounds were prepared as a 10 mM stock solution in DMSO (95%). Serial 3-fold dilutions were freshly prepared in an appropriate vehicle (distilled H2O or Ringers solution). The initial concentration was added to the apical chamber as a 1000× concentrate in 5 μl, resulting in a final 1× concentration the 5 ml volume of the Ussing chamber. Subsequent additions of compound were added in a 3.3 μl volume of the 1000× serially diluted stock solution. At the completion of the concentration-response experiment, amiloride (10 μM) was added into the apical chamber to enable the total amiloride-sensitive current to be measured. An amiloride control IC50 was established at the start of each experiment.
Results are expressed as the mean % inhibition of the amiloride-sensitive ISC. Concentration-response curves were plotted and IC50 values generated using GraphPad Prism 3.02. Cell inserts were typically run in duplicate and the IC50 calculated on the mean % inhibition data.

| Structure (SMILES) | IC50 [nM] |
| --- | --- |
| N=C(NC(=O)c1nc(Cl)c(N)nc1N)NC1CCN(C(=O)c2ccc(C(=O)N3CCC(NC(=N)NC(=O)c4nc(Cl)c(N)nc4N)CC3)cc2)CC1 [Example 4, N,N′-(1,1′-(1,4-phenylene)bis(oxomethylene)bis(piperidine-4,1-diyl))bis(azanediyl)bis(iminomethylene)bis(3,5-diamino-6-chloropyrazine-2-carboxamide)hydrochloride] | 10 |
| N=C(NC(=O)c1nc(Cl)c(N)nc1N)NC1CCN(c2ncnc(N3CCC(NC(=N)NC(=O)c4nc(Cl)c(N)nc4N)CC3)n2)CC1 [Example 7, N,N′-(1,1′-(1,3,5-triazine-2,4-diyl)bis(piperidine-4,1-diyl))bis(azanediyl)bis(iminomethylene)bis(3,5-diamino-6-chloropyrazine-2-carboxamide)hydrochloride] | 6 |
| N/C(=N\C(=O)c1nc(Cl)c(N)nc1N)NC1CCN(C(=O)NCCCCNC(=O)N2CCC(N/C(N)=N/C(=O)c3nc(Cl)c(N)nc3N)CC2)CC1 [Example 23, N,N′-(1,1′-(Butane-1,4-diylbis(azanediyl))bis(oxomethylene)bis(piperidine-4,1-diyl))bis(azanediyl)bis(aminomethan-1-yl-1-ylidene)bis(3,5-diamino-6-chloropyrazine-2-carboxamide) hydrobromide] | 1.6 |
| CCCCN(CCCC)CCCNc1nc(N2CCC(NC(=N)NC(=O)c3nc(Cl)c(N)nc3N)CC2)nc(N2CCC(NC(=N)NC(=O)c3nc(Cl)c(N)nc3N)CC2)n1 [Example 13, N,N′-(1,1′-(6-(3-(dibutylamino)propylamino)-1,3,5-triazine-2,4-diyl)bis(piperidine-4,1-diyl))bis(azanediyl)bis(iminomethylene)bis(3,5-diamino-6-chloropyrazine-2-carboxamide) trifluoroacetate] | 1 |
| N=C(NC(=O)c1nc(Cl)c(N)nc1N)NC1CCN(C(=O)Nc2ccc(NC(=O)N3CCC(NC(=N)NC(=O)c4nc(Cl)c(N)nc4N)CC3)cc2)CC1 [Example 2, N,N′-(1,1′-(1,4-phenylenebis(azanediyl))bis(oxomethylene)bis(piperidine-4,1-diyl))bis(azanediyl)bis(iminomethylene)bis(3,5-diamino-6-chloropyrazine-2-carboxamide)hydrobromide] | 1.5 |
